Assay results as given in ChEMBL document CHEMBL1158649, “Constituents of Pachygone ovata and Pharmacological Action of its Major Leaf Alkaloid” (J Nat Prod, 1979).
Activity calls are given as the source filed them. The calls are words filed in the database; no cut-off is given here.

Legend:
[1] = test system: Mus musculus; assay: Induction of hypnosis in mouse at 100 mg/kg, ip; format: functional; details: route intraperitoneal
[2] = Toxicity in Wistar albino rat assessed as mortality after 4 days; format: organism-based; details: in vivo, read-out: Activity
[3] = test system: Rattus norvegicus; assay: Increase in rectal temperature in Wistar albino rat at 10 mg/kg, ip by telethermometer relative to control; format: functional; details: route intraperitoneal
[4] = Acute toxicity in ip dosed mouse; format: organism-based; details: in vivo
[5] = test system: Mus musculus; assay: Potentiation of hexobarbitone-induced sleeping time in mouse at 20 mg/kg, ip; format: functional; details: route intraperitoneal
[6] = test system: Rattus norvegicus; assay: Antinociceptive activity in Wistar albino rat assessed as increase in latent period of tail flick response at 10 mg/kg, ip by tail-hot wire technique; format: functional; details: route intraperitoneal
[7] = test system: Rattus norvegicus; assay: Antinociceptive activity in Wistar albino rat assessed as increase in latent period of tail flick response at 20 mg/kg, ip by tail-hot wire technique; format: functional; details: route intraperitoneal
[8] = test system: Hoplobatrachus tigerinus; assay: Induction of tetanic convulsion in frog at 40 mg/kg dosed in ventral lymph sac; format: functional, organism-based; parameters: dose 40 mg/kg
[9] = test system: Mus musculus; assay: Effect on behavioral activity in mouse assessed as convulsion-induced hind limb extension at 30 to 40 mg/kg, ip; format: functional, organism-based; details: Hindlimb
[10] = test system: Mus musculus; assay: Potentiation of hexobarbitone-induced sleeping time in mouse at 5 mg/kg, ip; format: functional; details: route intraperitoneal
[11] = test system: Mus musculus; assay: Increase in locomotor activity in mouse at 10 mg/kg, ip after 30 mins by actophotometer; format: functional, organism-based; parameters: dose 10 mg/kg
[12] = test system: Rattus norvegicus; assay: Increase in rectal temperature in Wistar albino rat at 20 mg/kg, ip by telethermometer relative to control; format: functional; details: route intraperitoneal
[13] = Potentiation of amphetamine-induced lethal activity in Wistar albino rat assessed as mortality after 4 days; format: organism-based; details: in vivo, read-out: Activity
[14] = test system: Mus musculus; assay: Effect on central nervous system in mouse assessed as behavioral activity at 10 to 20 mg/kg, ip; format: functional, organism-based
[15] = test system: Rattus norvegicus; assay: Increase in rectal temperature in Wistar albino rat at 5 mg/kg, ip by telethermometer relative to control; format: functional; details: route intraperitoneal
[16] = organism: Mus musculus; assay: Effect on behavioral activity in mouse in presence of mephenesin; format: functional, organism-based

**Q.** With `CN1C(=O)NC(=O)C(C)(C2=CCCCC2)C1=O` (stereo unspecified) [HEXOBARBITAL] as the compound, how does the Activity [1] read?
**A.** 31.3 min

**Q.** Which mortality at 96 h [2] does the source give for `CC(N)Cc1ccccc1` (stereo unspecified) [AMPHETAMINE] here?
**A.** 10%

**Q.** Which Activity [3] does the source give for `COc1ccc(C[C@H]2c3cc(O)c(OC)cc3CCN2C)cc1O` [(S)-RETICULINE] here?
**A.** 0.69 °C

**Q.** And the LD50 [4]?
**A.** 56 mg/kg

**Q.** And the Activity [5]?
**A.** 23.7 min

**Q.** What about the Activity [6] of the same compound?
**A.** 7.8 s

**Q.** And the Activity [7]?
**A.** 11.9 s

**Q.** What about the Activity [8] of the same compound?
**A.** Active

**Q.** And the Activity [9]?
**A.** Active

**Q.** And the Activity [10]?
**A.** 56.2 min

**Q.** And the Activity [11]?
**A.** Active

**Q.** What about the Activity [12] of the same compound?
**A.** 1.1 °C

**Q.** And the mortality at 96 h [13]?
**A.** 60%

**Q.** And the Activity [14]?
**A.** Active

**Q.** What about the Activity [15] of the same compound?
**A.** 0.36 °C

**Q.** Which Activity [16] does the source give for `Cc1ccccc1OCC(O)CO` (stereo unspecified) here?
**A.** inactive
